Key:
[1] = target: T1, Carboxypeptidase N catalytic chain (Homo sapiens, UniProt P15169); test: Inhibition of human carboxypeptidase N preincubated for 10 mins followed by hippuryl-lysine substrate addition measured after 30 mins in absence of DTT
T1 sequence (P15169 whole entry): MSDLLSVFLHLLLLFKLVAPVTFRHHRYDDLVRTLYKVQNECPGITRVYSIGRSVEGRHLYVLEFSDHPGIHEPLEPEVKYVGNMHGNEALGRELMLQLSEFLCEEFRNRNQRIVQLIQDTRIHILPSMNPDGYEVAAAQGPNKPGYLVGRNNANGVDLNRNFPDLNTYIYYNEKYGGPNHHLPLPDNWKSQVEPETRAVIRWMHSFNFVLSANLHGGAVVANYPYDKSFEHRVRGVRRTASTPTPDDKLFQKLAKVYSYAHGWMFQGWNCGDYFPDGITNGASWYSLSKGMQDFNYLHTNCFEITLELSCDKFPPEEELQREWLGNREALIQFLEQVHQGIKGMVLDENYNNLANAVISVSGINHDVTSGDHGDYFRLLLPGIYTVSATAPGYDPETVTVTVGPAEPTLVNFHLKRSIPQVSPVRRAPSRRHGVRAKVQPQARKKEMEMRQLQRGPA

[2] = target: T1, Carboxypeptidase N catalytic chain; test: Inhibition of human carboxypeptidase N preincubated for 10 mins followed by hippuryl-lysine substrate addition measured after 30 mins in presence of DTT
Carboxypeptidase B2 [3] = target: T2, Carboxypeptidase B2 (Homo sapiens, UniProt Q96IY4); test: Inhibition of human plasma activated thrombin-activatable fibrinolysis inhibitor after 10 mins in presence of DTT
T2 sequence (Q96IY4 whole entry): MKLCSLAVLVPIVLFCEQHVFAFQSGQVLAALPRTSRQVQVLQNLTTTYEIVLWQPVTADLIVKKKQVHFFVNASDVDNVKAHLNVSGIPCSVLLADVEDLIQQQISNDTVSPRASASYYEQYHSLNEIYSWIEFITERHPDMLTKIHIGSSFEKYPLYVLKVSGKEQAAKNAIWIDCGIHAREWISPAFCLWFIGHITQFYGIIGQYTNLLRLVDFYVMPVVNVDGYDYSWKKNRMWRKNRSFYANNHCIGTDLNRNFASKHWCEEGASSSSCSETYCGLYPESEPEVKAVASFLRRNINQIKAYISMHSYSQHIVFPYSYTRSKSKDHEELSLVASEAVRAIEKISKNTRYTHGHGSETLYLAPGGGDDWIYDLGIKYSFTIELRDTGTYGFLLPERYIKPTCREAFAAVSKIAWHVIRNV

Carboxypeptidase B [4] = target: T3, Carboxypeptidase B (Sus scrofa, UniProt P09955); test: Inhibition of porcine pancreas carboxypeptidase B after 10 mins in presence of DTT
T3 sequence (P09955 whole entry): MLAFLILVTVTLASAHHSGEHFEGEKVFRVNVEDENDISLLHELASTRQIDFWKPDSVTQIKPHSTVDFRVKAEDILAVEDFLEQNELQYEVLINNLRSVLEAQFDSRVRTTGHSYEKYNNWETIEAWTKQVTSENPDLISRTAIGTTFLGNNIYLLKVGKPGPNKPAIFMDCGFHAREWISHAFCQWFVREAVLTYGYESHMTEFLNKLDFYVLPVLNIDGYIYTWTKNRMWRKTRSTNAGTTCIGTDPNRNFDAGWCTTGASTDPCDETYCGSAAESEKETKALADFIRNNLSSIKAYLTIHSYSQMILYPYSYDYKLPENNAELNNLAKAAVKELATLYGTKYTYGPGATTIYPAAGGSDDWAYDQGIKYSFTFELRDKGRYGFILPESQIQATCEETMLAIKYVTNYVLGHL

Carboxypeptidase B [5] = target: T3, Carboxypeptidase B; test: Inhibition of porcine pancreas carboxypeptidase B after 10 mins in absence of DTT
Carboxypeptidase B2 [6] = target: T2, Carboxypeptidase B2; test: Inhibition of human plasma activated thrombin-activatable fibrinolysis inhibitor after 10 mins in absence of DTT
Homo sapiens = species: Homo sapiens; test: Selectivity ratio of IC50 for human carboxypeptidase N to IC50 for human plasma activated thrombin-activatable fibrinolysis inhibitor

CCC(=O)[Se]CC(Cc1cnc(N)c(Cl)c1)C(=O)O (racemic)
IC50 [1]: > 380 µM
IC50 [2]: > 380 µM
IC50 (Carboxypeptidase B2 [3]): 0.0015 µM
IC50 (Carboxypeptidase B [4]): 0.029 µM
IC50 (Carboxypeptidase B [5]): 2.5 µM
IC50 (Carboxypeptidase B2 [6]): 370 µM
Ratio IC50 (Homo sapiens): > 250000

From ChEMBL document CHEMBL4118241, “Structural basis for the selective inhibition of activated thrombin-activatable fibrinolysis inhibitor (TAFIa) by a selenium-containing inhibitor with chloro-aminopyridine as a basic group” (Bioorg Med Chem Lett, 2018)
